# Assay results from patent publication US12180223B2 (Boehringer Ingelheim International GmbH, priority 2021, dated 2024).
# Assays:
# [1] = Assay B: Microsomal clearance; assay type: in vitro ADME, human; details: compounds of the invention; pooled liver microsomes 1 mg/ml, test compound 1 μM, NADPH, 37° C.
# Protocol: Evaluation of Microsomal Clearance Assay B: Microsomal Clearance:
# The metabolic degradation of the test compound is assayed at 37° C. with pooled liver microsomes. The final incubation volume of 100 μl per time point contains TRIS buffer pH 7.6 at RT (0.1 M), magnesium chloride (5 mM), microsomal protein (1 mg/ml) and the test compound at a final concentration of 1 μM.
# Following a short preincubation period at 37° C., the reactions are initiated by addition of beta-nicotinamide adenine dinucleotide phosphate, reduced form (NADPH, 1 mM) and terminated by transferring an aliquot into solvent after different time points (0, 5, 15, 30, 60 min). Additionally, the NADPH-independent degradation is monitored in incubations without NADPH, terminated at the last time point. The [%] remaining test compound after NADPH independent incubation is reflected by the parameter c(control) (metabolic stability). The quenched incubations are pelleted by centrifugation (10000 g, 5 min). An aliquot of the supernatant is assayed by LC-MS/MS for the amount of parent compound. The half-life (t½ INVITRO) is determined by the slope of the semilogarithmic plot of the concentration-time profile.
# [2] = Assay C: Hepatocyte clearance; assay type: in vitro ADME, human; details: compounds of the invention; hepatocyte suspension, 5% species serum, test compound 1 μM, six hours
# Protocol: Evaluation of Hepatocyte Clearance Assay C: Hepatocyte Clearance
# The metabolic degradation of the test compound is assayed in a hepatocyte suspension. Hepatocytes (cryopreserved) are incubated in Dulbecco's modified eagle medium (supplemented with 3.5 μg glucagon/500 mL, 2.5 mg insulin/500 mL and 3.75 mg/500 mL hydrocortisone) containing 5% species serum.
# The cells are incubated for six hours (incubator, orbital shaker) and samples (25 μl) are taken at 0, 0.5, 1, 2, 4 and 6 hours. Samples are transferred into acetonitrile and pelleted by centrifugation (5 min). The supernatant is transferred to a new 96-deepwell plate, evaporated under nitrogen and resuspended.
# Decline of parent compound is analyzed by HPLC-MS/MS
# CLint is calculated as follows CL_[…]=Dose/AUC=(C0/CD)/(AUD+clast/k)×1000/60. C0: initial concentration in the incubation [μM], CD: cell density of vital cells [10e6 cells/mL], AUD: area under the data [μM×h], clast: concentration of last data point [μM], k: slope of the regression line for parent decline [h−1].
# The calculated in vitro hepatic intrinsic clearance can be scaled up to the intrinsic in vivo hepatic Clearance and used to predict hepatic in vivo blood clearance (CL) by the use of a liver model (well stirred model).
# human TRPA1 ion channel = target: T1, human TRPA1 ion channel (Homo sapiens, UniProt O75762); assay: Assay A: TRPA1 assay (FLIPR calcium, AITC agonism, HEK293 over-expressing human TRPA1); assay type: cell-based; details: read-out: hTRPA1 IC50
# T1 construct: host or cells: HEK293
# T1 sequence (O75762 whole entry): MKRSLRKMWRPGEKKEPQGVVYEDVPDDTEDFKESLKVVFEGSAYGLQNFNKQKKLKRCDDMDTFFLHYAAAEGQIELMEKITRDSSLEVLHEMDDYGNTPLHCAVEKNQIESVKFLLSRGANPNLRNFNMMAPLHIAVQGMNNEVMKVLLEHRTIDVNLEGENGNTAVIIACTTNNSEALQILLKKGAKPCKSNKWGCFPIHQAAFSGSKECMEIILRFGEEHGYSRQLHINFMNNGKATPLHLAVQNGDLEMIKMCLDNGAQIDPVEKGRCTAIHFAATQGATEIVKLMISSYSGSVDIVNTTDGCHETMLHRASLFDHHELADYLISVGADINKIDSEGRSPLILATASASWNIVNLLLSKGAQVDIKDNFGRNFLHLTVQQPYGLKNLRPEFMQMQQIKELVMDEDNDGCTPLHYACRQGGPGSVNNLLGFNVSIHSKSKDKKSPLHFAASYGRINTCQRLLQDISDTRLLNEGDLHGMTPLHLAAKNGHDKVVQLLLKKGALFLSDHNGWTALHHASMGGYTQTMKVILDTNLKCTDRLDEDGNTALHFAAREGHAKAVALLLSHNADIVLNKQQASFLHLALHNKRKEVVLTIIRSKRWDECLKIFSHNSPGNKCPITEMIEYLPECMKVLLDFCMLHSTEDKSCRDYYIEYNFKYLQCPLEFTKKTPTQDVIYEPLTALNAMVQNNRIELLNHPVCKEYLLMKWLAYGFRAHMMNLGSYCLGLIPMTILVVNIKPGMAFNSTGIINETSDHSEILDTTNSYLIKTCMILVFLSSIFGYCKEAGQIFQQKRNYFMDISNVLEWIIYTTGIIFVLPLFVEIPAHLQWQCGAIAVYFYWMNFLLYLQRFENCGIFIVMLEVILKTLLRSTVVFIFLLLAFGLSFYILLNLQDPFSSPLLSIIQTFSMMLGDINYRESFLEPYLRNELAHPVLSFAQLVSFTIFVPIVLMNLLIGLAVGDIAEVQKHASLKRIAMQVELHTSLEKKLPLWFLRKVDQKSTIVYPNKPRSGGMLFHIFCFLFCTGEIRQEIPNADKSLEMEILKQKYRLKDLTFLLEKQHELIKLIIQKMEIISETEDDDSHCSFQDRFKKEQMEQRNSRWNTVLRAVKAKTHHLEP
# Protocol: A human HEK293 cell line over-expressing the human TRPA1 ion channel (Perkin Elmer, Product No. AX-004-PCL) is used as a test system for compound efficacy and potency. Compound activity is determined by measuring the effect of compounds on intracellular calcium concentration induced by AITC (Allylisothiocyanate) agonism in a FLIPRtetra system (Molecular Devices).
# The cells are obtained as frozen cells in cryo-vials and stored until use at −150° C. Cells are grown in culture medium (MEM/EBSS medium with 10% FCS and 0.4 mg/ML Geneticin). […] For sub-culturing cells are detached from flasks by Versene. At the day before the assay, cells are detached, washed twice with medium (MEM/EBSS medium with 10% FCS) and 20000 cells in 20 μl/well are seeded to Poly D-Lysin biocoated 384-well plates (black, clear bottom, Cat. 356697) from Corning. Plates are incubated for 24 hours at 37° C./5% CO2 before use in the assay.
# The test compounds are dissolved in 100% DMSO at a concentration of 10 mM and in a first step diluted in DMSO to a concentration of 5 mM, followed by serial dilution steps in 100% DMSO. Dilution factor and number of dilution steps may vary according to needs. Typically 8 different concentrations by 1:5 dilutions are prepared, further intermediate dilutions (1:20) of the substances are carried out with HBSS/HEPES buffer (1×HEPES, Cat. 14065 from Gibco, 20 mM HEPES, Cat. 83264 from SIGMA, 0.1% BSA Cat. 11926 from Invitrogen, pH 7.4
# At the assay day cells are washed 3× with assay puffer, 20 μL buffer remaining in the wells after washing. 10 μL Ca6 kit (Cat. R8191 MolecularDevices) loading buffer in HBSS/HEPES is added to the cells and the plates are incubated with lid for 120 minutes at 37°/5% CO2. 10 μL of compound or controls in HBSS/HEPES buffer/5% DMSO from the intermediate dilution plate are carefully added to the wells. […] Finally 10 μL of the agonist AITC 50 μM dissolved in HBSS/HEPES buffer/0.05% DMSO (final concentration 10 μM) is added to the wells followed by an additional read on the FLIPRtetra device for 10 minutes. The area under the signal curve (AUC) after AITC addition is used for IC50/% inhibition calculations
# Data Evaluation and Calculation:
# Each assay microtiter plate contains wells with vehicle (1% DMSO) controls instead of compound as controls for AITC induced luminescence (100% CTL; high controls) and wells with vehicle controls without AITC as controls for non-specific changes in luminescence (0% CTL; low controls).
# The analysis of the data is performed by the calculation of the area under signal curve of the individual wells. Based on this values the % value for the measurement of each substance concentration is calculated (AUC(sample)−AUC(low))*100/(AUC(high)−AUC(low)) using MegaLab software (in house development). The IC50 values are calculated from the % control values using MegaLab software. Calculation: [y=(a−d)/(1+(x/c)^b)+d], a=low value, d=high value; x=conc M; c=IC50 M; b=hill; y=% ctrl
SMILES,human LM [1],human Hepatocytes [2],IC50 (human TRPA1 ion channel)
COc1ccc([C@@H](O)Cc2noc(Cn3cnc4scc(C(N)=O)c4c3=O)n2)cc1 [Example 10],<23 % Qh,19 % Qh,87 nM
NC(=O)c1csc2ncn(Cc3nc(C[C@H](O)c4cc5ccccc5s4)no3)c(=O)c12 [Example 3],39 % Qh,–,9 nM
NC(=O)c1csc2ncn(Cc3nc(C[C@H](O)c4cc5cc(Cl)ccc5o4)no3)c(=O)c12 [Example 4],34 % Qh,34 % Qh,9 nM
NC(=O)c1csc2ncn(Cc3nc(C[C@H](O)c4ccc(F)cc4)no3)c(=O)c12 [Example 8],<23 % Qh,13 % Qh,57 nM
NC(=O)c1csc2ncn(Cc3nc(C[C@H](O)c4cc5cc(F)ccc5o4)no3)c(=O)c12 [Example 6],23 % Qh,22 % Qh,12 nM
NC(=O)c1csc2ncn(Cc3nc(C[C@H](O)c4ccc(I)cc4)no3)c(=O)c12 [Example 5],<23 % Qh,24 % Qh,12 nM
NC(=O)c1csc2ncn(Cc3nc(C[C@H](O)c4cc5ccc(F)cc5s4)no3)c(=O)c12 [Example 2],43 % Qh,36 % Qh,7 nM
"NC(=O)c1csc2ncn(Cc3nc(C[C@H](O)c4ccc(Cl)cc4)no3)c(=O)c12 [Example 1, 3-({3-[(2S)-2-(4-chlorophenyl)-2-hydroxyethyl]-1,2,4-oxadiazol-5-yl}methyl)-4-oxo-3H,4H-thieno[2,3-d]pyrimidine-5-carboxamide]",<23 % Qh,22 % Qh,29 nM
NC(=O)c1csc2ncn(Cc3nc(C[C@H](O)c4ccc(Cl)s4)no3)c(=O)c12 [Example 9],27 % Qh,61 % Qh,77 nM
Cc1ccc([C@@H](O)Cc2noc(Cn3cnc4scc(C(N)=O)c4c3=O)n2)cc1 [Example 7],–,26 % Qh,22 nM
